According to DBAASP:
Values after ≈ are worked out from the molar mass of the structure shown. Each block holds one molecule with its values, some of them ahead of it.

What was measured:
Experiment in all cases: ≥ marks a high value that may be exact or a test limit, other limits are often not marked, values filed in µg/mL are converted to µM
Staphylococcus xylosus = test system: Staphylococcus xylosus
[1] = test system: Escherichia coli DH5alpha
[2] = test system: Staphylococcus aureus USA 300
Escherichia coli K-12 = test system: Escherichia coli K-12
Staphylococcus aureus = test system: Staphylococcus aureus
[3] = test system: Escherichia coli ATCC 25922
[4] = test system: Enterococcus faecalis ATCC 29212
[5] = test system: Bacillus subtilis CMCC 63501
[6] = test system: Pseudomonas aeruginosa ATCC 27853
[7] = test system: Salmonella enterica subsp. enterica serovar Typhimurium C77-31
[8] = test system: Salmonella enterica subsp. enterica serovar Pullorum C79-13
[9] = test system: Staphylococcus aureus ATCC 29213
[10] = test system: Staphylococcus epidermidis ATCC 12228
[11] = test system: Micrococcus luteus ATCC 9341
[12] = test system: Staphylococcus aureus ATCC 6538
[13] = test system: Staphylococcus aureus ATCC 43300
[14] = test system: Escherichia coli ATCC 8739
[15] = test system: Bacillus subtilis ATCC 6633
[16] = test system: Candida albicans ATCC 90028
[17] = test system: Staphylococcus aureus ATCC 6538P

SMILES: CC[C@H](C)[C@H](NC(=O)[C@H](CC(C)C)NC(=O)[C@@H](NC(=O)[C@H](CCCN=C(N)N)NC(=O)[C@H](CCCCN)NC(=O)[C@H](CCCN=C(N)N)NC(=O)[C@H](CCCCN)NC(=O)[C@H](CC(C)C)NC(=O)[C@@H](NC(=O)[C@H](CC(C)C)NC(=O)[C@H](CCCCN)NC(=O)[C@@H](N)CCCN=C(N)N)[C@@H](C)CC)[C@@H](C)CC)C(=O)N[C@@H](CCCCN)C(=O)N[C@@H](CCCN=C(N)N)C(=O)O [RKLILKRKRILIKR]
- MIC (Staphylococcus xylosus): 8 µM (≈ 14.7 µg/mL)
- MIC [1]: 16 µM (≈ 29.4 µg/mL)

SMILES: CC[C@H](C)[C@H](NC(=O)CN)C(=O)N[C@@H](CC(C)C)C(=O)NCC(=O)N[C@H](C(=O)N[C@H](C(=O)N[C@@H](Cc1ccccc1)C(=O)N[C@@H](CCCCN)C(=O)N[C@@H](C)C(=O)NCC(=O)N[C@@H](CCCCN)C(=O)NCC(=O)N[C@H](C(=O)N[C@H](C(=O)N[C@H]1CSSC[C@@H](C(=O)O)NC(=O)[C@H](CC(C)C)NC(=O)CNC(=O)[C@H]([C@@H](C)O)NC(=O)[C@H](CC(C)C)NC(=O)CNC1=O)C(C)C)[C@@H](C)CC)C(C)C)[C@@H](C)O [GILGTVFKAGKGIVCGLTGLC]
- MIC [12]: 3.1 µM (≈ 6.22 µg/mL)
- MIC [13]: 12.5 µM (≈ 25.1 µg/mL)
- MIC [14]: ≥ 50 µM
- MIC [15]: 12.5 µM (≈ 25.1 µg/mL)
- MIC [16]: ≥ 50 µM

SMILES: CC[C@H](C)[C@H](NC(=O)[C@H](CCCCN)NC(=O)[C@H](CCC(N)=O)NC(=O)[C@@H](NC(=O)[C@@H](NC(=O)[C@H](CCCCN)NC(=O)[C@H](CCCCN)NC(=O)[C@H](Cc1ccccc1)NC(=O)[C@H](CCC(=O)O)NC(=O)CN)[C@@H](C)CC)C(C)C)C(=O)N[C@@H](CCCCN)C(=O)N[C@@H](CC(=O)O)C(=O)N[C@@H](Cc1ccccc1)C(=O)N[C@@H](CC(C)C)C(=O)N[C@@H](CCCCN)C(=O)N[C@@H](CC(N)=O)C(=O)N[C@@H](CC(C)C)C(=O)N[C@H](C(N)=O)C(C)C [GEFKKIVQKIKDFLKNLV]
- MIC [2]: ≥ 120 µM
- MIC (Escherichia coli K-12): ≥ 60 µM

SMILES: CC[C@H](C)[C@H](NC(=O)[C@H](CCCCN)NC(=O)[C@@H](NC(=O)[C@H](CO)NC(=O)[C@H](CC(N)=O)NC(=O)[C@H](Cc1c[nH]c2ccccc12)NC(=O)[C@H](CC(C)C)NC(=O)CN)[C@@H](C)CC)C(=O)N[C@@H](C)C(=O)NCC(=O)N[C@@H](CCCCN)C(=O)N[C@@H](CC(N)=O)C(=O)N[C@@H](CC(C)C)C(=O)N[C@@H](Cc1ccccc1)C(=O)N[C@H](C(=O)N[C@@H](CC(N)=O)C(=O)N[C@H](C(=O)N[C@@H](CC(C)C)C(=O)N[C@@H](CC(=O)O)C(=O)N[C@@H](CCCCN)C(=O)N[C@H](C(=O)N[C@@H](CCCN=C(N)N)C(=O)N[C@H]1CSSC[C@@H](C(=O)O)NC(=O)CNC(=O)CNC(=O)[C@H](C)NC(=O)[C@H](C(C)C)NC(=O)[C@H](CCCCN)NC1=O)[C@@H](C)CC)C(C)C)C(C)C [GLWNSIKIAGKNLFVNVLDKIRCKVAGGC]
- MIC [12]: 3.1 µM (≈ 9.66 µg/mL)
- MIC [13]: 12.5 µM (≈ 38.9 µg/mL)
- MIC [14]: 12.5 µM (≈ 38.9 µg/mL)
- MIC [16]: ≥ 100 µM

SMILES: CC[C@H](C)[C@@H]1NC(=O)[C@H](C)NC(=O)[C@H](CC(C)C)NC(=O)[C@@H]2CSSC[C@@H](C(=O)N[C@@H](CCCN=C(N)N)C(=O)N[C@@H](CCCN=C(N)N)C(=O)O)NC(=O)[C@H]([C@@H](C)CC)NC(=O)[C@@H]3CSSC[C@H](NC(=O)[C@H](CC(C)C)NC(=O)[C@H](CO)NC(=O)[C@H](Cc4cnc[nH]4)NC(=O)[C@H](CC(N)=O)NC(=O)[C@H](C)NC(=O)[C@H](C)NC(=O)[C@H](Cc4ccccc4)NC(=O)CNC(=O)[C@H](CCCCN)NC(=O)[C@H](C)NC(=O)[C@H](CCC(=O)O)NC(=O)[C@H](Cc4ccccc4)NC(=O)[C@H](CO)NC(=O)[C@H](CC(C)C)NC(=O)[C@H](CC(C)C)NC(=O)[C@H](CC(=O)O)NC(=O)[C@@H](NC(=O)[C@@H](NC(=O)[C@@H](N)C(C)C)[C@@H](C)O)CSSC[C@H](NC(=O)[C@H](CO)NC(=O)CNC(=O)CNC(=O)[C@H](CCCN=C(N)N)NC(=O)[C@H](CCCN=C(N)N)NC(=O)CNC1=O)C(=O)N[C@@H](CCC(=O)O)C(=O)N[C@@H](CCCN=C(N)N)C(=O)NCC(=O)N[C@@H](C(C)C)C(=O)N3)C(=O)N[C@@H](C)C(=O)N[C@@H](C)C(=O)N[C@@H](Cc1cnc[nH]1)C(=O)N2 [VTCDLLSFEAKGFAANHSLCAAHCLAIGRRGGSCERGVCICRR]
- MIC [17]: 0.878 µM
- MIC (Staphylococcus aureus): 4.39 µM

SMILES: CC[C@H](C)[C@H](NC(=O)[C@H](CC(C)C)NC(=O)[C@@H](NC(=O)[C@H](CC(C)C)NC(=O)[C@@H](NC(=O)[C@H](CCCCN)NC(=O)[C@H](CCCN=C(N)N)NC(=O)[C@@H](N)CCCCN)[C@@H](C)CC)[C@@H](C)CC)C(=O)N[C@@H](CCCCN)C(=O)N[C@@H](CCCN=C(N)N)C(=O)N[C@@H](CCCCN)C(=O)O [KRKILILIKRK]
- MIC (Staphylococcus xylosus): 2 µM (≈ 2.82 µg/mL)
- MIC [1]: 8 µM (≈ 11.3 µg/mL)

Second part, the molecule after the results:

- MIC (Staphylococcus xylosus): ≥ 64 µM
- MIC [1]: ≥ 64 µM
SMILES: CC[C@H](C)[C@H](N)C(=O)N[C@@H](CC(C)C)C(=O)N[C@H](C(=O)N[C@@H](CC(C)C)C(=O)N[C@H](C(=O)N[C@@H](CCCCN)C(=O)N[C@@H](CCCN=C(N)N)C(=O)N[C@@H](CCCCN)C(=O)O)[C@@H](C)CC)[C@@H](C)CC [ILILIKRK]

- MIC [2]: ≥ 50 µM
- MIC (Escherichia coli K-12): ≥ 100 µM
- MIC (Staphylococcus aureus): 130 µM (≈ 211 µg/mL)
SMILES: CC[C@H](C)[C@H](NC(=O)[C@H](CC(C)C)NC(=O)[C@@H]1CCCN1C(=O)[C@H](Cc1ccccc1)NC(=O)[C@H](CC(C)C)NC(=O)[C@@H](N)Cc1ccccc1)C(=O)N[C@H](C(=O)N[C@@H](CO)C(=O)N[C@@H](Cc1ccccc1)C(=O)N[C@@H](CC(C)C)C(=O)N[C@@H](CO)C(=O)N[C@@H](CCCCN)C(=O)N[C@H](C(=O)N[C@@H](CC(C)C)C(=O)O)C(C)C)[C@@H](C)O [FLFPLITSFLSKVL]

- MIC [3]: 2 µM (≈ 3.05 µg/mL)
- MIC [4]: 8 µM (≈ 12.2 µg/mL)
- MIC [5]: 2 µM (≈ 3.05 µg/mL)
- MIC [6]: > 128 µM
- MIC [7]: 16 µM (≈ 24.4 µg/mL)
- MIC [8]: 4 µM (≈ 6.1 µg/mL)
- MIC [9]: 8 µM (≈ 12.2 µg/mL)
- MIC [10]: 8 µM (≈ 12.2 µg/mL)
SMILES: NC(=O)[C@H](Cc1c[nH]c2ccccc12)NC(=O)[C@H](CCCN=C(N)N)NC(=O)[C@H](CS)NC(=O)[C@H](Cc1ccccc1)NC(=O)[C@H](CCCN=C(N)N)NC(=O)[C@H](CCCN=C(N)N)NC(=O)[C@H](CCCN=C(N)N)NC(=O)[C@H](CS)NC(=O)[C@H](CCCN=C(N)N)NC(=O)[C@@H](N)Cc1c[nH]c2ccccc12 [WRCRRRFCRW]

- MIC (Staphylococcus xylosus): 16 µM (≈ 18 µg/mL)
- MIC [1]: ≥ 32 µM
SMILES: CC[C@H](C)[C@H](NC(=O)[C@H](CC(C)C)NC(=O)[C@@H](NC(=O)[C@H](CC(C)C)NC(=O)[C@@H](NC(=O)[C@@H](N)CCCCN)[C@@H](C)CC)[C@@H](C)CC)C(=O)N[C@@H](CCCCN)C(=O)N[C@@H](CCCN=C(N)N)C(=O)N[C@@H](CCCCN)C(=O)O [KILILIKRK]

- MIC [11]: 0.4 µM (≈ 0.728 µg/mL)
SMILES: CC[C@H](C)[C@H](N)C(=O)N[C@@H](CC(C)C)C(=O)N1CCC[C@H]1C(=O)N[C@@H](Cc1c[nH]c2ccccc12)C(=O)N[C@@H](CCCCN)C(=O)N[C@@H](Cc1c[nH]c2ccccc12)C(=O)N1CCC[C@H]1C(=O)N[C@@H](Cc1c[nH]c2ccccc12)C(=O)N[C@@H](Cc1c[nH]c2ccccc12)C(=O)N1CCC[C@H]1C(=O)N[C@@H](Cc1c[nH]c2ccccc12)C(=O)N[C@@H](C)C(=O)N[C@@H](CCCN=C(N)N)C(N)=O [ILPWKWPWWPWAR]
